Source: PubChem BioAssay (NCI)
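The compound was tested at five concentrations on cells cultured in 96-well plates, with a 48-hour exposure period. TGI denotes the concentration required for complete inhibition of growth.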

Experiments:
Assay in all cases: DTP human tumour cell line panel, 48 h
OVCAR-8 ovarian = test system: OVCAR-8 ovarian
BT-549 breast = test system: BT-549 breast
OVCAR-4 ovarian = test system: OVCAR-4 ovarian
SNB-75 CNS = test system: SNB-75 CNS
PC-3 prostate = test system: PC-3 prostate
SK-MEL-2 melanoma = test system: SK-MEL-2 melanoma
SR leukemia = test system: SR leukemia
SK-MEL-28 melanoma = test system: SK-MEL-28 melanoma
NCI-H23 lung = test system: NCI-H23 lung
SW-620 colon = test system: SW-620 colon
MALME-3M melanoma = test system: MALME-3M melanoma
MDA-MB-435 = test system: MDA-MB-435
CCRF-CEM leukemia = test system: CCRF-CEM leukemia
MOLT-4 leukemia = test system: MOLT-4 leukemia
U251 CNS = test system: U251 CNS
SK-MEL-5 melanoma = test system: SK-MEL-5 melanoma
SF-539 CNS = test system: SF-539 CNS
SN12C renal = test system: SN12C renal
SF-295 CNS = test system: SF-295 CNS
UO-31 renal = test system: UO-31 renal
RXF 393 renal = test system: RXF 393 renal
K-562 leukemia = test system: K-562 leukemia
OVCAR-3 ovarian = test system: OVCAR-3 ovarian
HL-60(TB) leukemia = test system: HL-60(TB) leukemia
HCC-2998 colon = test system: HCC-2998 colon
SF-268 CNS = test system: SF-268 CNS
NCI/ADR-RES ovarian = test system: NCI/ADR-RES ovarian
IGROV1 ovarian = test system: IGROV1 ovarian
M14 melanoma = test system: M14 melanoma
HOP-92 NSCLC = test system: HOP-92 NSCLC
DU-145 prostate = test system: DU-145 prostate
HCT-116 colon = test system: HCT-116 colon
MDA-MB-231 breast = test system: MDA-MB-231 breast
A549 NSCLC = test system: A549 NSCLC
HT29 colon = test system: HT29 colon
UACC-257 melanoma = test system: UACC-257 melanoma
NCI-H226 lung = test system: NCI-H226 lung
SNB-19 CNS = test system: SNB-19 CNS
ACHN renal = test system: ACHN renal
UACC-62 melanoma = test system: UACC-62 melanoma
OVCAR-5 ovarian = test system: OVCAR-5 ovarian
NCI-H522 lung = test system: NCI-H522 lung
EKVX NSCLC = test system: EKVX NSCLC
T-47D breast = test system: T-47D breast
RPMI-8226 leukemia = test system: RPMI-8226 leukemia
CAKI-1 renal = test system: CAKI-1 renal
COLO 205 colon = test system: COLO 205 colon
MCF7 breast = test system: MCF7 breast
A498 renal = test system: A498 renal
LOX IMVI melanoma = test system: LOX IMVI melanoma
786-0 renal = test system: 786-0 renal
SK-OV-3 ovarian = test system: SK-OV-3 ovarian
MDA-N = test system: MDA-N
KM12 colon = test system: KM12 colon
HCT-15 colon = test system: HCT-15 colon
NCI-H460 lung = test system: NCI-H460 lung
HS 578T breast = test system: HS 578T breast

Measured: TGI

O[C@H]1[C@H]2[C@H](O)C[C@H](CCOCc3ccccc3)CN2C[C@H]1O
> 100 µM: all assays above
